Reference: PubChem BioAssay AID256 (DTP/NCI, 2004)
Values joined by “and” are separate entries in the source; they are usually repeats but may differ in a detail not shown here. Identical values can stand only once. Toxic doses and inconclusive results are not listed. Non-standard residues stand in square brackets, D forms with d. Residues, ends and D or L forms follow the SMILES beside them. ξ: configuration not given here. *: point of attachment. ONp = O=[N+]([O-])c1ccc(O*)cc1; ξS = NC(CO)C(=O)O

System: CD2F1 mice, L1210 leukemia ip, survival T/C
Assay: NCI In Vivo Anticancer Drug Screen. Data for tumor model L1210 Leukemia (intraperitoneal) in CD2F1 (CDF1) mice
Details: higher = longer survival
Procedure, shortened: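 Tumor-bearing mice (transplanted tumor) were split into treated and vehicle control groups, and the measured endpoint of each treated group was divided by that of its vehicle controls.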

[1] = endpoint: mean survival time, dose: 3.12 mg/kg/injection, schedule: Q01DX009 (ip), vehicle: Klucel (hydroxypropylcellulose) (HPC)
[2] = endpoint: mean survival time, dose: 6.25 mg/kg/injection, schedule: Q01DX009 (ip), vehicle: Klucel (hydroxypropylcellulose) (HPC)
[3] = endpoint: mean survival time, dose: 12.5 mg/kg/injection, schedule: Q01DX009 (ip), vehicle: Klucel (hydroxypropylcellulose) (HPC)
[4] = endpoint: mean survival time, dose: 25.0 mg/kg/injection, schedule: Q01DX009 (ip), vehicle: Klucel (hydroxypropylcellulose) (HPC)
[5] = endpoint: mean survival time, dose: 50.0 mg/kg/injection, schedule: Q01DX009 (ip), vehicle: Klucel (hydroxypropylcellulose) (HPC)
[6] = endpoint: mean survival time, dose: 100.0 mg/kg/injection, schedule: Q01DX009 (ip), vehicle: Klucel (hydroxypropylcellulose) (HPC)
[7] = endpoint: mean survival time, dose: 100.0 mg/kg/injection, schedule: Q04DX003 (ip), vehicle: saline with Tween-80
[8] = endpoint: mean survival time, dose: 200.0 mg/kg/injection, schedule: Q04DX003 (ip), vehicle: saline with Tween-80
[9] = endpoint: mean survival time, dose: 400.0 mg/kg/injection, schedule: Q04DX003 (ip), vehicle: saline with Tween-80
[10] = endpoint: mean survival time, dose: 400.0 mg/kg/injection, schedule: Q01DX009 (ip), vehicle: saline with Tween-80
[11] = endpoint: mean survival time, dose: 50.0 mg/kg/injection, schedule: Q01DX009 (ip), vehicle: saline with Tween-80
[12] = endpoint: mean survival time, dose: 100.0 mg/kg/injection, schedule: Q01DX009 (ip), vehicle: saline with Tween-80
[13] = endpoint: mean survival time, dose: 200.0 mg/kg/injection, schedule: Q01DX009 (ip), vehicle: saline with Tween-80
[14] = endpoint: mean survival time, dose: 12.5 mg/kg/injection, schedule: Q01DX009 (ip), vehicle: saline with Tween-80

CC(C)CC(=O)NC(C(=O)NC(C(=O)NC(CC(C)C)C(O)CC(=O)NC(C)C(=O)NC(CC(C)C)C(O)CC(=O)O)C(C)C)C(C)C (stereo unspecified)
T/C [1]: 96 % of control
T/C [2]: 100 % of control
T/C [3]: 96 % of control
T/C [4]: 100 % of control
T/C [5]: 94 % of control
T/C [6]: 97 % of control

Cc1ccc(S(=O)(=O)N/N=C/C(Br)=C(/Br)C(=O)O)cc1
T/C [1]: 104 % of control
T/C [2]: 112 % of control
T/C [3]: 113 % of control
T/C [4]: 115 % of control and 105 % of control
T/C [5]: 113 % of control and 102 % of control
T/C [6]: 120 % of control and 108 % of control
T/C (endpoint: mean survival time, dose: 200.0 mg/kg/injection, schedule: Q01DX009 (ip), vehicle: Klucel (hydroxypropylcellulose) (HPC)): 104 % of control

COc1ccc(/C=C2\N=C(c3ccccc3)OC2=O)cc1OC
T/C (endpoint: mean survival time, dose: 100.0 mg/kg/injection, schedule: Q01DX009 (ip), vehicle: saline): 103 % of control
T/C (endpoint: mean survival time, dose: 200.0 mg/kg/injection, schedule: Q01DX009 (ip), vehicle: saline): 98 % of control
T/C (endpoint: mean survival time, dose: 400.0 mg/kg/injection, schedule: Q01DX009 (ip), vehicle: saline): 98 % of control

NC(CO)C(=O)NCC(=O)Oc1ccc([N+](=O)[O-])cc1 (stereo unspecified) (H-[ξS]-Gly-ONp)
T/C (endpoint: mean survival time, dose: 75.0 mg/kg/injection, schedule: Q01DX001 (ip), vehicle: saline): 100 % of control
T/C (endpoint: mean survival time, dose: 150.0 mg/kg/injection, schedule: Q01DX001 (ip), vehicle: saline): 102 % of control
T/C (endpoint: mean survival time, dose: 300.0 mg/kg/injection, schedule: Q01DX001 (ip), vehicle: saline): 96 % of control

CC(C)NCC1CC2c3cccc4[nH]cc(c34)CC2N(C)C1 (stereo unspecified)
T/C (endpoint: median survival time, dose: 25.0 mg/kg/injection, schedule: Q04DX003 (ip), vehicle: saline with Tween-80): 100 % of control
T/C (endpoint: median survival time, dose: 50.0 mg/kg/injection, schedule: Q04DX003 (ip), vehicle: saline with Tween-80): 111 % of control

CCOC(=O)/C(=C(\[O-])OCC)[n+]1ccccc1
T/C [7]: 97 % of control
T/C [8]: 100 % of control
T/C [9]: 100 % of control

O=c1[nH]c(=O)n(C2SC(CO)C(O)C2O)cc1F (stereo unspecified)
T/C (endpoint: mean survival time, dose: 178.0 mg/kg/injection, schedule: Q01DX009 (ip), vehicle: saline with Tween-80): 113 % of control
T/C (endpoint: mean survival time, dose: 267.0 mg/kg/injection, schedule: Q01DX009 (ip), vehicle: saline with Tween-80): 113 % of control
T/C [10]: 119 % of control

COc1cc(Cl)ccc1NC(=O)Nc1ccc(S(N)(=O)=O)cc1
T/C [11]: 91 % of control
T/C [12]: 100 % of control
T/C [13]: 91 % of control

COc1cc(OC)c(OC)cc1/C=c1\[nH]c(=O)/c(=C/c2cc(OC)c(OC)cc2OC)[nH]c1=O
T/C (endpoint: mean survival time, dose: 3.13 mg/kg/injection, schedule: Q01DX009 (ip), vehicle: saline with Tween-80): 102 % of control
T/C (endpoint: mean survival time, dose: 6.25 mg/kg/injection, schedule: Q01DX009 (ip), vehicle: saline with Tween-80): 90 % of control
T/C [14]: 91 % of control
T/C [8]: 87 % of control

OCC1CC=CCC1 (stereo unspecified)
T/C [7]: 97 % of control
T/C [8]: 90 % of control
T/C [9]: 95 % of control

COC(=O)C12C=CC=CC3C(C=C1)NC(=O)C32 (stereo unspecified)
T/C (endpoint: median survival time, dose: 25.0 mg/kg/injection, schedule: Q04DX002 (ip), vehicle: saline with Tween-80): 122 % of control
T/C (endpoint: median survival time, dose: 50.0 mg/kg/injection, schedule: Q04DX002 (ip), vehicle: saline with Tween-80): 100 % of control
T/C (endpoint: median survival time, dose: 100.0 mg/kg/injection, schedule: Q04DX002 (ip), vehicle: saline with Tween-80): 100 % of control
T/C (endpoint: median survival time, dose: 200.0 mg/kg/injection, schedule: Q04DX002 (ip), vehicle: saline with Tween-80): 111 % of control

COC(=O)c1ccc(N=NN(C)COC(C)=O)cc1
T/C (endpoint: median survival time, dose: 15.0 mg/kg/injection, schedule: Q01DX005 (ip), vehicle: Klucel (hydroxypropylcellulose) (HPC)): 109 % of control
T/C (endpoint: median survival time, dose: 30.0 mg/kg/injection, schedule: Q01DX005 (ip), vehicle: Klucel (hydroxypropylcellulose) (HPC)): 113 % of control
T/C (endpoint: median survival time, dose: 60.0 mg/kg/injection, schedule: Q01DX005 (ip), vehicle: Klucel (hydroxypropylcellulose) (HPC)): 114 % of control
T/C (endpoint: median survival time, dose: 240.0 mg/kg/injection, schedule: Q01DX005 (ip), vehicle: Klucel (hydroxypropylcellulose) (HPC)): 182 % of control

Cn1c(=O)c2[nH]c(-c3ccccc3[N+](=O)[O-])nc2n(C)c1=O
T/C (endpoint: mean survival time, dose: 12.5 mg/kg/injection, schedule: Q01DX005 (ip), vehicle: other): 97 % of control
T/C (endpoint: mean survival time, dose: 25.0 mg/kg/injection, schedule: Q01DX005 (ip), vehicle: other): 94 % of control
T/C (endpoint: mean survival time, dose: 50.0 mg/kg/injection, schedule: Q01DX005 (ip), vehicle: other): 90 % of control
T/C (endpoint: mean survival time, dose: 100.0 mg/kg/injection, schedule: Q01DX005 (ip), vehicle: other): 96 % of control
T/C (endpoint: mean survival time, dose: 200.0 mg/kg/injection, schedule: Q01DX005 (ip), vehicle: other): 94 % of control

c1ccc2sc(SSN3CC4CCC(CC4)C3)nc2c1
T/C [14]: 97 % of control and 108 % of control
T/C (endpoint: mean survival time, dose: 25.0 mg/kg/injection, schedule: Q01DX009 (ip), vehicle: saline with Tween-80): 93 % of control and 101 % of control
T/C [11]: 102 % of control and 103 % of control
T/C [12]: 101 % of control and 108 % of control
T/C [13]: 95 % of control and 108 % of control
T/C [10]: 103 % of control

CC(O)C(O)C=O (stereo unspecified)
T/C (endpoint: mean survival time, dose: 72.0 mg/kg/injection, schedule: Q03HX008 (ip), vehicle: saline): 100 % of control
T/C (endpoint: mean survival time, dose: 120.0 mg/kg/injection, schedule: Q03HX008 (ip), vehicle: saline): 97 % of control
T/C (endpoint: mean survival time, dose: 200.0 mg/kg/injection, schedule: Q03HX008 (ip), vehicle: saline): 102 % of control
T/C (endpoint: mean survival time, dose: 248.0 mg/kg/injection, schedule: Q01DX009 (ip), vehicle: saline): 101 % of control
T/C (endpoint: mean survival time, dose: 346.0 mg/kg/injection, schedule: Q01DX009 (ip), vehicle: saline): 104 % of control
T/C (endpoint: mean survival time, dose: 576.0 mg/kg/injection, schedule: Q01DX001 (ip), vehicle: saline): 97 % of control
T/C (endpoint: mean survival time, dose: 576.0 mg/kg/injection, schedule: Q01DX009 (ip), vehicle: saline): 107 % of control
T/C (endpoint: mean survival time, dose: 960.0 mg/kg/injection, schedule: Q01DX001 (ip), vehicle: saline): 94 % of control
T/C (endpoint: mean survival time, dose: 1600.0 mg/kg/injection, schedule: Q01DX001 (ip), vehicle: saline): 102 % of control

CC(=O)NNC(=O)c1ccccc1CO
T/C (endpoint: mean survival time, dose: 12.5 mg/kg/injection, schedule: Q01DX009 (ip), vehicle: other): 89 % of control
T/C (endpoint: mean survival time, dose: 25.0 mg/kg/injection, schedule: Q01DX009 (ip), vehicle: other): 90 % of control
T/C (endpoint: mean survival time, dose: 50.0 mg/kg/injection, schedule: Q01DX009 (ip), vehicle: other): 97 % of control
T/C (endpoint: mean survival time, dose: 100.0 mg/kg/injection, schedule: Q01DX009 (ip), vehicle: other): 94 % of control
T/C (endpoint: mean survival time, dose: 200.0 mg/kg/injection, schedule: Q01DX009 (ip), vehicle: other): 101 % of control

NS(=O)(=O)c1ccc(N=Cc2ccccc2O)cc1
T/C [12]: 95 % of control
T/C [13]: 89 % of control
T/C [10]: 86 % of control

CC(C)(C)OC(=O)C[Si](C)(C)C
T/C (endpoint: mean survival time, dose: 12.5 mg/kg/injection, schedule: Q01DX005 (ip), vehicle: Klucel (hydroxypropylcellulose) (HPC)): 90 % of control
T/C (endpoint: mean survival time, dose: 25.0 mg/kg/injection, schedule: Q01DX005 (ip), vehicle: Klucel (hydroxypropylcellulose) (HPC)): 91 % of control
T/C (endpoint: mean survival time, dose: 50.0 mg/kg/injection, schedule: Q01DX005 (ip), vehicle: Klucel (hydroxypropylcellulose) (HPC)): 93 % of control
T/C (endpoint: mean survival time, dose: 100.0 mg/kg/injection, schedule: Q01DX005 (ip), vehicle: Klucel (hydroxypropylcellulose) (HPC)): 90 % of control
T/C (endpoint: mean survival time, dose: 200.0 mg/kg/injection, schedule: Q01DX005 (ip), vehicle: Klucel (hydroxypropylcellulose) (HPC)): 88 % of control
T/C (endpoint: mean survival time, dose: 400.0 mg/kg/injection, schedule: Q01DX005 (ip), vehicle: Klucel (hydroxypropylcellulose) (HPC)): 90 % of control

CN(C)C1c2ccccc2-c2ccccc21
T/C (endpoint: mean survival time, dose: 50.0 mg/kg/injection, schedule: Q01DX001 (ip), vehicle: carboxymethylcellulose (CMC)): 104 % of control
T/C (endpoint: mean survival time, dose: 100.0 mg/kg/injection, schedule: Q01DX001 (ip), vehicle: carboxymethylcellulose (CMC)): 104 % of control
T/C (endpoint: mean survival time, dose: 200.0 mg/kg/injection, schedule: Q01DX001 (ip), vehicle: carboxymethylcellulose (CMC)): 104 % of control
T/C (endpoint: mean survival time, dose: 400.0 mg/kg/injection, schedule: Q01DX001 (ip), vehicle: carboxymethylcellulose (CMC)): 110 % of control

COc1ccc(/C=N/N=C/c2ccc(OC)cc2)cc1
T/C (endpoint: mean survival time, dose: 100.0 mg/kg/injection, schedule: Q04DX003 (ip), vehicle: Klucel (hydroxypropylcellulose) (HPC)): 104 % of control
T/C (endpoint: mean survival time, dose: 200.0 mg/kg/injection, schedule: Q04DX003 (ip), vehicle: Klucel (hydroxypropylcellulose) (HPC)): 100 % of control
T/C (endpoint: mean survival time, dose: 400.0 mg/kg/injection, schedule: Q04DX003 (ip), vehicle: Klucel (hydroxypropylcellulose) (HPC)): 114 % of control
